Reference: patent publication US8686143B2, “Compounds useful as inhibitors of Janus kinases” (Vertex Pharmaceuticals Incorporated, priority 2007, dated 2014)
pKi: −log10 of the molar value.

These molecules were tested against T1, JAK3 (Homo sapiens, UniProt P52333) (assay: JAK3 Inhibition Assay (33P incorporation into poly(Glu)4Tyr)). Conditions: 1 nM JAK3, 5 μM ATP, 1 μM poly(Glu)4Tyr, 25° C.
T1 sequence (P52333 1-1124): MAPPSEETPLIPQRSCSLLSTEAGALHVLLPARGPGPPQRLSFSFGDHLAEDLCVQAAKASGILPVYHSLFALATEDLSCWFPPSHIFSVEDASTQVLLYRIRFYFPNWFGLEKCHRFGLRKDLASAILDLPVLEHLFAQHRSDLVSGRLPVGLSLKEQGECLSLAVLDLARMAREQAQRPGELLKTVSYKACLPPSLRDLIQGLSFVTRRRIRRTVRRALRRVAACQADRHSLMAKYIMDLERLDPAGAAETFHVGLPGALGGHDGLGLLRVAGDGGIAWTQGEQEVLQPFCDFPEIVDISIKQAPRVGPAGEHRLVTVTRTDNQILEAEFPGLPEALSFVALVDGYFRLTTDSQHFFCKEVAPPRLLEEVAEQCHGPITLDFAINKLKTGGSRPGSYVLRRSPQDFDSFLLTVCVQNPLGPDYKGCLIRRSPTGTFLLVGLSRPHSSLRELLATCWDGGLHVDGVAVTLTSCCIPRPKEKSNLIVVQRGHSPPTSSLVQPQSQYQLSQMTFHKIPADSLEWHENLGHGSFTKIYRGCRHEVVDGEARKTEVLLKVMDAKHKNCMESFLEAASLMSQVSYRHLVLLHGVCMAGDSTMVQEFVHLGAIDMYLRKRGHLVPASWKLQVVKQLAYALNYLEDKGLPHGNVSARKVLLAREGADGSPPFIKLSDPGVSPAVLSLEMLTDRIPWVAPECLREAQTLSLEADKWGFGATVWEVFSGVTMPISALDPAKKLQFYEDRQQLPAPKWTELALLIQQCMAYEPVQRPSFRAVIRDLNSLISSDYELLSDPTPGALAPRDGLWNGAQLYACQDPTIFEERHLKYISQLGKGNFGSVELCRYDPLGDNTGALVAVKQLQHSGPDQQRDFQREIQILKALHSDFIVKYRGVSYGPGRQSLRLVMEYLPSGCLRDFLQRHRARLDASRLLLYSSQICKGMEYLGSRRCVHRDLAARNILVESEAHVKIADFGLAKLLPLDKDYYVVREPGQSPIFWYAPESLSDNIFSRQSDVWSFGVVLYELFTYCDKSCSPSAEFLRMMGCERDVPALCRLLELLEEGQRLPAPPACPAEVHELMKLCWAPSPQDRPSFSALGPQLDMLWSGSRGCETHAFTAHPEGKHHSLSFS
Assay type: biochemical
Procedure: Compounds were screened for their ability to inhibit JAK3 using the assay shown below. Reactions were carried out in a kinase buffer containing 100 mM HEPES (pH 7.4), 1 mM DTT, 10 mM MgCl2, 25 mM NaCl, and 0.01% BSA. Substrate concentrations in the assay were 5 μM ATP (200 uCi/μmole ATP) and 1 μM poly(Glu)4Tyr. Reactions were carried out at 25° C. and 1 nM JAK3.
To each well of a 96 well polycarbonate plate was added 1.5 μl of a candidate JAK3 inhibitor along with 50 μlof kinase buffer containing 2 μM poly(Glu)4Tyr and 10 μM ATP. This was then mixed and 50 μl of kinase buffer containing 2 nM JAK3 enzyme was added to start the reaction. After 20 minutes at room temperature (25° C.), the reaction was stopped with 50 μl of 20% trichloroacetic acid (TCA) that also contained 0.4 mM ATP. The entire contents of each well were then transferred to a 96 well glass fiber filter plate using a TomTek Cell Harvester. After washing, 60 μl of scintillation fluid was added and ^33P incorporation detected on a Perkin Elmer TopCount.

pKi	Compound
5.00 to 6.00	CC(=O)Nc1nc2ccc(-c3nccc(NC(C)(C)C(=O)NCC(F)(F)F)n3)cc2s1 [Compound 82]
5.00 to 6.00	C[C@H](Nc1nc(-c2cccnc2N)ncc1F)C(=O)NCC(F)(F)F [Compound 27]
5.00 to 6.00	COc1ccc(Nc2nc(N)n(-c3ncc(F)c(NCC(=O)NCC(F)(F)F)n3)n2)cc1 [Compound 58]
≥ 6.00	CC(C)(Nc1ccnc(-c2c[nH]c(C(=O)N3CCCC3)c2)n1)C(=O)NCC(F)(F)F [Compound 101]
≥ 6.00	CC(C)(Nc1ccnc(-c2ccc3ncsc3c2)n1)C(=O)NCC(F)(F)F [Compound 154]
4.30 to 5.00	CNC(=O)c1cc(-c2ncc(F)c(N3CCC[C@@H]3C(=O)NCC(F)(F)F)n2)c[nH]1 [Compound 115]
≥ 6.00	CC(C)(Nc1ccnc(-c2ccc3ncccc3c2)n1)C(=O)NCC(F)(F)F [Compound 75]
4.30 to 5.00	CC(C)NC(=O)c1cc(-c2ncc(F)c(NC(C)(C)C(=O)NCC(F)(F)F)n2)c[nH]1 [Compound 96]
4.30 to 5.00	O=C(NCC1CC1)c1cc(-c2ncc(F)c(N3CCC[C@@H]3C(=O)NCC(F)(F)F)n2)c[nH]1 [Compound 118]
5.00 to 6.00	CC(=O)Nc1nc2ccc(-c3ncc(F)c(NC(C)(C)C(=O)NCC(F)(F)F)n3)cc2s1 [Compound 64]
5.00 to 6.00	Nc1nc(Nc2ccc(F)cc2)nn1-c1ncc(F)c(N2CCC[C@@H]2C(=O)NCC(F)(F)F)n1 [Compound 44]
4.30 to 5.00	O=C(NCC(F)(F)F)[C@H]1CCCN1c1nc(-c2ccc(O)cc2)ncc1F [Compound 151]
4.30 to 5.00	CC(C)C(Nc1nc(-c2c[nH]c(C(=O)NCC3CC3)c2)ncc1F)C(=O)NCC(F)(F)F (stereo not shown) [Compound 106]
5.00 to 6.00	O=C(NCC(F)(F)F)[C@H]1CCCN1c1ccnc(-c2ccc3c(c2)OCO3)n1 [Compound 59]
5.00 to 6.00	CC(C)C(Nc1nc(-c2c[nH]c(C(=O)N3CCCC3)c2)ncc1F)C(=O)NCC(F)(F)F (stereo not shown) [Compound 107]
5.00 to 6.00	CC(C)(Nc1nc(-c2c[nH]c(C(=O)O)c2)ncc1F)C(=O)NCC(F)(F)F [Compound 133]
5.00 to 6.00	O=C(NCC(F)(F)F)[C@H]1CCCN1c1nc(-c2c[nH]c(C(=O)N3CCCC3)c2)ncc1F [Compound 119]
≥ 6.00	CC(C)[C@@H](Nc1ccnc(-c2ccc3ncsc3c2)n1)C(=O)NCC(F)(F)F [Compound 148]

pKi	Compound
5.00 to 6.00	CC(C)[C@@H](Nc1nc(-c2ccc3nc(N)sc3c2)ncc1F)C(=O)NCC(F)(F)F [Compound 78]
5.00 to 6.00	O=C(NCC(F)(F)F)[C@H]1CCCN1c1ccnc(-c2c[nH]c(C(=O)N3CCCC3)c2)n1 [Compound 130]
5.00 to 6.00	CC(C)(Nc1ccnc(-c2ccc3nc(N)sc3c2)n1)C(=O)NCC(F)(F)F [Compound 79]
≥ 6.00	CC(C)(Nc1nc(-c2ccc3nccnc3c2)ncc1F)C(=O)NCC(F)(F)F [Compound 162]
4.30 to 5.00	CC(C)[C@@H](Nc1ccnc(-c2ccc3c(c2)OCO3)n1)C(=O)NCC(F)(F)F [Compound 71]
≥ 6.00	CC(C)(Nc1ccnc(-c2ccc3c(c2)OCO3)n1)C(=O)NCC(F)(F)F [Compound 74]
4.30 to 5.00	CC(C)[C@@H](Nc1nc(-c2ccc3c(c2)OCO3)ncc1F)C(=O)NCC(F)(F)F [Compound 76]
5.00 to 6.00	CC(C)(Nc1ccnc(-c2ccc(=O)[nH]c2)n1)C(=O)NCC(F)(F)F [Compound 86]
≥ 6.00	CC(C)(Nc1nc(-c2c[nH]c(C(=O)N3CCCC3)c2)ncc1F)C(=O)NCC(F)(F)F [Compound 97]
5.00 to 6.00	O=C(NCC(F)(F)F)[C@@H]1CCCN1c1nc(-c2cccnc2)ncc1F [Compound 26]
≥ 6.00	CC(C)(Nc1ccnc(-c2ccc3nccnc3c2)n1)C(=O)NCC(F)(F)F [Compound 163]
5.00 to 6.00	COc1ccc(Nc2nc(N)n(-c3ncc(F)c(N[C@@H](C(=O)NCC(F)(F)F)C(C)C)n3)n2)cc1 [Compound 43]
≥ 6.00	O=C(NCC(F)(F)F)[C@H]1CCCN1c1nc(-c2c[nH]c(C(=O)N3CC=CC3)c2)ncc1F [Compound 120]
5.00 to 6.00	CC(C)(Nc1nc(-c2ccc3nc(N)sc3c2)ncc1F)C(=O)NCC(F)(F)F [Compound 66]
5.00 to 6.00	COc1ccc(Nc2nc(N)n(-c3ncc(F)c(NCCC(=O)NCC(F)(F)F)n3)n2)cc1 [Compound 50]
5.00 to 6.00	CC(C)[C@@H](Nc1ccnc(-c2c[nH]c(C(=O)NCC3CC3)c2)n1)C(=O)NCC(F)(F)F [Compound 112]
5.00 to 6.00	COc1ccc(Nc2nc(N)n(-c3nccc(NC(C)(C)C(=O)NCC(F)(F)F)n3)n2)cc1 [Compound 38]

Same assay, conditions: at concentrations of 50 μM

inhibition of JAK3 at concentrations of 50 μM	Compound
did not inhibit	CC(C)NC(=O)c1cc(-c2nccc(N[C@@H](C(=O)NCC(F)(F)F)C(C)C)n2)c[nH]1 [Compound 111]
did not inhibit	CC(C)(Nc1ccnc(-c2c[nH]c(C(=O)O)c2)n1)C(=O)NCC(F)(F)F [Compound 128]
did not inhibit	O=C(NCC(F)(F)F)[C@H]1CCCN1c1nc(-c2c[nH]c3ccc(Cl)cc23)ncc1F [Compound 157]
did not inhibit	COc1ccc(-c2ncc(F)c(N3CCC[C@@H]3C(=O)NCC(F)(F)F)n2)cn1 [Compound 91]
did not inhibit	O=C(CCNc1nc(-c2cccnc2F)ncc1F)NCC(F)(F)F [Compound 12]
did not inhibit	O=C(NCC(F)(F)F)[C@H]1CCCN1c1nc(-c2cccnc2F)ncc1F [Compound 21]
did not inhibit	C[C@@H](Nc1nc(-c2ccc(F)nc2)ncc1F)C(=O)NCC(F)(F)F [Compound 19]
did not inhibit	O=C(CNc1nc(-c2ccc(F)nc2)ncc1F)NCC(F)(F)F [Compound 9]
did not inhibit	O=C(NCC(F)(F)F)[C@H]1CCCN1c1nc(-c2ccc3c(c2)OCCO3)ncc1F [Compound 153]
did not inhibit	O=C(NCC(F)(F)F)[C@H]1CCCN1c1nc(-c2ccc(F)nc2)ncc1F [Compound 22]
did not inhibit	O=C(NCC(F)(F)F)[C@@H]1CCCN1c1nc(-c2cccnc2F)ncc1F [Compound 24]
did not inhibit	COc1ccc(-c2ncc(F)c(NC(C)(C)C(=O)NCC(F)(F)F)n2)cc1 [Compound 124]
did not inhibit	CC(C)NC(=O)c1cc(-c2ncc(F)c(N[C@@H](C(=O)NCC(F)(F)F)C(C)C)n2)c[nH]1 [Compound 105]
did not inhibit	COc1ccc(-c2ncc(F)c(N[C@@H](C(=O)NCC(F)(F)F)C(C)C)n2)cc1 [Compound 145]
did not inhibit	C[C@@H](Nc1nc(-c2cccnc2F)ncc1F)C(=O)NCC(F)(F)F [Compound 17]
did not inhibit	COc1ccc(-c2nccc(NC(C)(C)C(=O)NCC(F)(F)F)n2)cc1 [Compound 149]
did not inhibit	CC(=O)Nc1nc2ccc(-c3ncc(F)c(N4CCC[C@@H]4C(=O)NCC(F)(F)F)n3)cc2s1 [Compound 92]
did not inhibit	CC(C)NC(=O)c1cc(-c2nccc(N3CCC[C@@H]3C(=O)NCC(F)(F)F)n2)c[nH]1 [Compound 122]
did not inhibit	CC(C)[C@@H](Nc1nc(-c2ccc3c(c2)OCCO3)ncc1F)C(=O)NCC(F)(F)F [Compound 166]
did not inhibit	COc1ccc(-c2nccc(N[C@@H](C(=O)NCC(F)(F)F)C(C)C)n2)cn1 [Compound 70]
